In article PMC6444227, “Pharmacological Evaluation of Secondary Metabolites and Their Simultaneous Determination in the Arabian Medicinal Plant Plicosepalus curviflorus Using HPTLC Validated Method” (Journal of Analytical Methods in Chemistry, 2019):
Converted amounts (≈) assume the structure as drawn.

Key:
[1] = target: T1, PPARα (Homo sapiens, UniProt Q07869); test: PPARα reporter gene assay (luciferase fold induction); type: cell-based; conditions: dual activation
T1 construct: expressed in transfected cells
T1 sequence (Q07869 1-468): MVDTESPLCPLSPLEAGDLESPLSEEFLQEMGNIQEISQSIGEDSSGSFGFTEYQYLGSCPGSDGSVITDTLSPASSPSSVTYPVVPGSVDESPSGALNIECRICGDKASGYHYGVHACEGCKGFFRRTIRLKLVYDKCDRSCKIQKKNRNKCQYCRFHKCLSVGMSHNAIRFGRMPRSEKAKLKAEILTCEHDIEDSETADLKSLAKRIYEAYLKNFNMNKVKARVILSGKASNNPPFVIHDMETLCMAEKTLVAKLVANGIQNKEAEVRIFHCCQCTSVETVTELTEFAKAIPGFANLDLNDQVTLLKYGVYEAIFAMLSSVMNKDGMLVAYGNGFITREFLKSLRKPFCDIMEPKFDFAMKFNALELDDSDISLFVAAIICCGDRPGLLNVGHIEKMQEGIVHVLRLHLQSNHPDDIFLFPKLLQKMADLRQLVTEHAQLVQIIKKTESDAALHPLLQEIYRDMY
Experimental: (§1) A reporter gene assay was carried out as described previously. Briefly, upon confluency, the different concentrations of the test samples were exposed to transfected cells for 24 hrs. Vehicle control was taken into consideration when the fold induction in luciferase activity was calculated. Both rosiglitazone and ciprofibrate were used as control drugs for PPARα and PPARγ, respectively.
(§2) Fold induction in the PPAR activity was detected in response to the methanol fraction and pure compounds according to untreated controls. A fold induction of 1.5 means a 50% increase in PPAR activity. […] Several studies have been carried out with the aim of exploring the potential of selective PPARγ modulators. The dual activator effect of P2 is in agreement with previous literature.

[2] = target: T2, PPARγ (Homo sapiens, UniProt P37231); test: PPARγ reporter gene assay (luciferase fold induction); type: cell-based
T2 construct: expressed in transfected cells
T2 sequence (P37231 1-505): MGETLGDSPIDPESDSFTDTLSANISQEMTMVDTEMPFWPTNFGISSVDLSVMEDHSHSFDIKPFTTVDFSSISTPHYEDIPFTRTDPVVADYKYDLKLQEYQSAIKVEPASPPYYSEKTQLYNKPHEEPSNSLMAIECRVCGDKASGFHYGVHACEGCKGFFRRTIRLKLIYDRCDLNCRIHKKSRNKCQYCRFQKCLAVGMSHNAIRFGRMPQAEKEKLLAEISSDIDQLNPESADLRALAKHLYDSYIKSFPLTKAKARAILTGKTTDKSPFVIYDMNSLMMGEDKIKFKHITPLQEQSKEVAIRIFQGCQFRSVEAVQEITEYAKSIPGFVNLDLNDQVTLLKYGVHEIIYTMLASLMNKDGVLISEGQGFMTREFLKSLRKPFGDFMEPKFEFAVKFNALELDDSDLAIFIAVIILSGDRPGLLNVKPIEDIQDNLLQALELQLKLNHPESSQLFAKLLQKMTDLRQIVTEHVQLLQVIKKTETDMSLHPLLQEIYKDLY
Experimental: as §1, §2

[3] = system: HepG2 cells; test: Cellular antioxidant assay (decrease in oxidative stress, ABAP); type: cell-based, human; conditions: at 250 µg/mL for pure compounds
Experimental: Human hepatoma cell line (HepG2) was the cell line of choice in this study according to the previously described method. At a density of 60,000 cells/well, the HepG2 cells were seeded in a 96-well plate and incubated for 24 h for confluency. PBS was used for washing the cells, followed by samples treatment. The SpectraMax plate reader was used for reading the plates after addition of 600 μM of ABAP. The area under the curve (AUC) of fluorescence units and time were two parameters used for indication of the percent decrease in oxidative stress. Percent decrease in oxidative stress = 100 − ((AUC sample/AUC control) × 100). Quercetin was used as a positive control.

[4] = system: iNOS; test: iNOS inhibition, nitrite level in LPS-treated macrophages (Griess); type: cell-based, mouse
Experimental: Mouse macrophage (RAW264.7) cells were seeded in the wells of 96-well plates followed by 24 hrs for confluency according to the method described previously. The test samples were treated with LPS (5 μg/mL) and followed by 24-hour incubation as well. The nitrite level in cell supernatant was measured by Griess reagent. The dose response curves gave indication for IC50 values. Parthenolide was used as positive control.

[5] = system: four cancerous cell lines as well as the two normal cell lines; test: Cytotoxicity, whole panel; type: cell-based; conditions: all cell lines
Experimental: (§3) Four human cancer cell lines (SK-OV-3, SK-MEL, BT-549 and KB) and two noncancerous kidney cell lines (VERO and LLC-PK1) were measured in the in vitro cytotoxic study. Test samples were added on the cell lines with variable concentrations, followed by 48 h incubation. According to the Borenfreund method, the cell viability was determined at the end of incubation, using doxorubicin as a positive control.

[6] = system: BT-549; test: Cytotoxicity assay (Borenfreund method, 48 h); type: cell-based; conditions: Homo sapiens, NA = no cytotoxic activity upto 100 µg/mL, read-out: Cancer cells IC50, BT-549
Experimental: as §3

[7] = system: KB; test: Cytotoxicity assay (Borenfreund method, 48 h); type: cell-based; conditions: Homo sapiens, NA = no cytotoxic activity upto 100 µg/mL, read-out: Cancer cells IC50, KB
Experimental: as §3

[8] = system: LLC-PK11; test: Cytotoxicity assay (Borenfreund method, 48 h); type: cell-based; conditions: NA = no cytotoxic activity upto 100 µg/mL, read-out: Noncancer cells IC50, LLC-PK11
Experimental: as §3

[9] = system: SK-MEL; test: Cytotoxicity assay (Borenfreund method, 48 h); type: cell-based; conditions: Homo sapiens, NA = no cytotoxic activity upto 100 µg/mL, read-out: Cancer cells IC50, SK-MEL
Experimental: as §3

[10] = system: SK-OV-3; test: Cytotoxicity assay (Borenfreund method, 48 h); type: cell-based; conditions: Homo sapiens, NA = no cytotoxic activity upto 100 µg/mL, read-out: Cancer cells IC50, SK-OV-3
Experimental: as §3

[11] = system: VERO; test: Cytotoxicity assay (Borenfreund method, 48 h); type: cell-based; conditions: Chlorocebus sabaeus, NA = no cytotoxic activity upto 100 µg/mL, read-out: Noncancer cells IC50, VERO
Experimental: as §3

[12] = system: NF-κB; test: NF-κB luciferase reporter gene assay in PMA-treated SW1353 cells; type: cell-based; conditions: Homo sapiens; SW1353, PMA 70 ng/mL 8 h; NA = no activity up to 100 µg/mL; read-out: NF-kB inhibition (IC50)
Experimental: According to the method described earlier, the 96-well plates with density of 1.25 × 10^5 cells per well were seeded with human chondrosarcoma cells (SW1353) transfected with NF-κB luciferase plasmid construct. After incubation for 24 h, cells were treated with the test samples for half an hour followed by PMA (70 ng/mL) for 8 h. Luciferase assay kit (Promega, Madison, WI, USA) was used for determination of luciferase activity, and parthenolide was used as the positive control in this test.

**Q.** `O=C(Oc1cc(O)cc2c1C[C@@H](O)[C@H](c1ccc(O)c(O)c1)O2)c1cc(O)c(O)c(O)c1` [Compound P3, 2S,3R-3,3′,4′,5,7-pentahydroxyflavane-5-O-gallate] was tested. Which “PPAR alpha agonistic activity, fold induction” value [1] did it give?
**A.** no PPAR agonistic activity

**Q.** What about the “PPAR gamma agonistic activity, fold induction” value ([2]; dual activation) of the same molecule?
**A.** no PPAR agonistic activity

**Q.** What about the “% decrease in oxidative stress” value [3] of the same molecule?
**A.** 57%

**Q.** What about the “iNOS inhibition (in words)” value [4] of the same molecule?
**A.** did not show any

**Q.** And the “Cytotoxicity (in words)” value [5]?
**A.** not cytotoxic

**Q.** How did the IC50 [6] turn out when `COc1cccc2c1C(=O)c1c(O)c3c(c(O)c1C2=O)C[C@@](O)(C(=O)CO)C[C@@H]3O[C@H]1C[C@H](N)[C@H](O)[C@H](C)O1` [Doxorubicin] was run?
**A.** 1.93 µg/mL (≈ 3.55 µM)

**Q.** What about the IC50 [7] of the same molecule?
**A.** 1.85 µg/mL (≈ 3.4 µM)

**Q.** And the IC50 [8]?
**A.** 0.85 µg/mL (≈ 1.56 µM)

**Q.** And the IC50 [9]?
**A.** 1.23 µg/mL (≈ 2.26 µM)

**Q.** What about the IC50 [10] of the same molecule?
**A.** 0.8 µg/mL (≈ 1.47 µM)

**Q.** What about the IC50 [11] of the same molecule?
**A.** > 5 µg/mL

**Q.** With `C=C1C(=O)O[C@H]2[C@H]1CC/C(C)=C/CC[C@@]1(C)O[C@@H]21` [Parthenolide, reference compound] as the molecule, how does the IC50 ([4]; Mus musculus, RAW264.7, LPS 5 µg/mL, 24 h, NA = no activity up to 100 µg/mL) read?
**A.** 0.35 ± 0.22 µg/mL (≈ 1.41 µM)

**Q.** And the IC50 [12]?
**A.** 0.5 ± 0.21 µg/mL (≈ 2.01 µM)

**Q.** For `CN(CCOc1ccc(CC2SC(=O)NC2=O)cc1)c1ccccn1` (centres unmarked) [Rosiglitazone, reference compound], which fold induction at 10 µM ([2]; control drug at 10 µM, read-out: Fold induction PPAR gamma) is on record?
**A.** 3.7
